From patent US12018281B2, “Cardiomyocyte maturation promoter” (Kyoto University, priority 2018, dated 2024)

Each molecule was assayed on cardiomyocytes derived from double knock-in human iPS cell lines (EmGFP at TNNI1, mCherry at TNNI3) (assay: TNNI3-mCherry reporter expression by anti-mCherry immunostaining and high contents screening (Experimental Example 1)). Details: 1 μM test compound added on 3rd and 6th culture days, measured on 8th culture day; Alexa 647 (anti-mCherry); average of n=3; control well (no addition) 797.
Format: cell-based
Method: (§1) For detection of cardiomyocyte maturation, double knock-in human iPS cell lines, in which reporter protein sequences, EmGFP (Sequence Number 1) and mCherry (Sequence Number 2) were inserted into gene loci for TNNI1 and TNNI3, respectively, were prepared (the human iPS cells were prepared from episomal vector (loaded gene; OCT3/4, KLF4, SOX2, L-MYC, LIN28, mouse p53DD) using PBMC (LP_167, Sample ID:20130318) purchased from CTL (reference literature; Okita K, et al. Stem Cells. 2012 Nov. 29. doi: 10.1002/stem.1293)).
(§2) The maintenance culture of the above-mentioned reporter iPS cell lines was carried out by a conventional method (Okita K, et al. Stem Cells. 2012 Nov. 29. doi: 10.1002/stem.1293).
For differentiation induction into cardiomyocytes, the reporter iPS cell lines were treated with 0.5×TrypLE select (Life Technologies, diluted in ½ with 0.5 mM EDTA/PBS) for 4 to 5 minutes, and the cells were exfoliated using a cell scraper (IWAKI), and then dissociated into the single cell by pipetting. The medium was removed by centrifugation (1,000 rpm, 5 min), and the obtained cells were seeded on a bioreactor (ABLE) by 1×10^7 cells per 30 mL of the bioreactor, and then cultured in a medium prepared by adding 1% L-glutamine, transferrin 150 μg/mL, ascorbic acid 50 μg/mL (Sigma), monothioglycerol 4×10^−4 M, 10 μM Rock inhibitor (Y-27632), 2 ng/mL BMP4 (R&D) and 0.5% Matrigel (Growth Factor Reduced) to a medium after removal of solution C from StemFit AK02 (AJINOMOTO AK02, 400 mL of solution A and 100 mL of B solution, total 500 mL), at 37° C., under 5% oxygen condition (55 rpm, stirred suspension culture method) to form embryoid bodies (0 day).
Next day (1st day), 9 μL (final concentration 3 ng/mL) of […], 15 μL (final concentration 5 ng/mL) of 10 μg/mL bFGF and […] (final concentration 10 ng/mL) of 10 μg/mL BMP4 were added to the bioreactor, and the cells were cultured at 37° C. for additional 2 days, under 5% oxygen condition.
Then (3rd day), the obtained embryoid bodies were collected in a 50 mL centrifuge tube, and then subjected to centrifugation (200 g, 1 min). The medium was removed, and the embryoid bodies were cultured in a medium prepared by adding 1% L-glutamine, transferrin 150 μg/mL, ascorbic acid 50 μg/mL (Sigma), monothioglycerol 4×10^−4 M, 10 ng/mL VEGF, 1 μM IWP-3, 0.6 μM dorsomorphin and 5.4 μM SB431542 to a medium after removal of solution C from StemFit AK02 (AJINOMOTO AK02, 400 mL of solution A and 100 mL of B solution, total 500 mL), at 37° C. for 3 days, under 5% oxygen condition (55 rpm, stirred suspension culture method).
Then (6th day), the bioreactor was left to stand to precipitate the embryoid bodies, and 80 to 90% of the medium was removed. A medium prepared by adding 1% L-glutamine, transferrin 150 μg/mL, ascorbic acid 50 μg/mL (Sigma), monothioglycerol 4×10^−4 M and 5 ng/mL VEGF to a medium after removal of solution C from StemFit AK02 (AJINOMOTO AK02, 400 mL of solution A and 100 mL of B solution, total 500 mL) was added to the bioreactor so that the total volume became 30 mL, and the embryoid bodies were cultured for 8 days, at 37° C., under 5% oxygen condition (55 rpm, stirred suspension culture method). During the culture, the medium was replaced with a medium under the same conditions every 2 to 3 days.
14th Day after the start of the differentiation induction, the embryoid bodies were treated with 2 mg/mL collagenase type I (Sigma) for 2 hr, and then with 0.25% trypsin/EDTA (Invitrogen) for 10 min. 50% FBS/IMDM (Thermo Fisher Science) was added thereto, and the embryoid bodies were dissociated into the single cell by pipetting, and then subjected to centrifugation (1,000 rpm, 5 minutes). […]

In order of rising “average fluorescent intensity (at 1 μM)” value:
1. Clc1ccc(CCc2nc3cc(-c4ccco4)cnc3[nH]2)cc1 [Example No. 4, 2-(2-(4-chlorophenyl)ethyl)-6-(2-furyl)-3H-imidazo[4,5-b]pyridine]  1125
2. Nc1ccc(-c2nc3cc(-c4nc5cc(N)ccc5[nH]4)ccc3[nH]2)cc1 [Example No. 8, 2′-(4-aminophenyl)-1H,1′H-2,5′-bibenzimidazol-5-amine]  1150
3. COC(=O)c1c(C)[nH]c(C)c1C(=O)c1ccccc1Cc1ccccc1 [Example No. 7, methyl 4-(2-benzylbenzoyl)-2,5-dimethyl-1H-pyrrole-3-carboxylate]  1294
4. COc1cccc(-c2cc3ccc(N(C)C)cc3c(N)n2)c1 [Example No. 6, 3-(3-methoxyphenyl)-N7,N7-dimethylisoquinoline-1,7-diamine]  1305
5. CCn1nnc2cc(COC(=O)Nc3sc(-c4ccc(C)cc4OC)nc3C)ccc21 [Example No. 2, (1-ethyl-1H-benzotriazol-5-yl)methyl (2-(2-methoxy-4-methylphenyl)-4-methyl-1,3-thiazol-5-yl)carbamate]  1331
6. COc1ccc(/C=C\c2cc(OC)c(OC)c(OC)c2)cc1O [Example No. 1, 2-methoxy-5-((Z)-2-(3,4,5-trimethoxyphenyl)vinyl)phenol]  1381
7. CC[C@]1(O)C[C@H]2CN(CCc3c([nH]c4ccccc34)[C@@](C(=O)OC)(c3cc4c(cc3OC)N(C=O)[C@H]3[C@@](O)(C(=O)OC)[C@H](OC(C)=O)[C@]5(CC)C=CCN6CC[C@]43[C@@H]65)C2)C1 [Example No. 3, (2′beta)-22-oxovincaleukoblastine]  1710
8. COc1ccc(C[C@H](NC(=O)[C@H](C)NC(=O)CN2CCOCC2)C(=O)N[C@@H](Cc2ccccc2)C(=O)[C@]2(C)CO2)cc1 [Example No. 5, 4,5-anhydro-1,2-dideoxy-4-methyl-2-((N-(morpholin-4-ylacetyl)-L-alanyl-O-methyl-L-tyrosyl)amino)-1-phenyl-L-threo-pent-3-ulose]  1791

These molecules were tested on embryoid bodies/cardiomyocytes derived from double knock-in human iPS cell lines (EmGFP at TNNI1, mCherry at TNNI3) (assay: mCherry expression in TNNI1+ cells by flow cytometry (Experimental Example 2)). Details: 40 nM, 10th to 16th day of differentiation, controls 7.4 (no addition), 10.2 (0.1% DMSO).
Format: cell-based
Method: as §1, §2
For differentiation induction into cardiomyocytes, the reporter iPS cell lines were treated with 0.5×TrypLE select (Life Technologies, diluted in ½ with 0.5 mM EDTA/PBS) for 4 to 5 minutes, and the cells were exfoliated using a cell scraper (IWAKI), and then dissociated into the single cell by pipetting. […]

For `CCn1nnc2cc(COC(=O)Nc3sc(-c4ccc(C)cc4OC)nc3C)ccc21` [Example No. 2, (1-ethyl-1H-benzotriazol-5-yl)methyl (2-(2-methoxy-4-methylphenyl)-4-methyl-1,3-thiazol-5-yl)carbamate], the “mCherry+ (%)” value was 36.1%.
